pEC50: −log10 of the molar value.
These compounds were tested against T1, human sphingosine-1-phosphate 1 receptor (S1P1 receptor) (Homo sapiens, UniProt P21453) (assay: Ca2+ inducing ability (calcium increase, Calcium 5 assay kit) in CHO cells overexpressing human S1P1 receptor).
T1 construct: host or cells: CHO-K1
Type: cell-based
Experimental: Experimental Example: Evaluation of Ca^2+ Inducing Ability of a Test Compound Using a Cell Line Expressing Human Sphingosine-1-Phosphate
It is a functional test method in which a therapeutic efficacy of an agonist compound is determined by an increase in calcium in CHO (Chinese hamster ovary) cells, which overexpress human sphingosine-1-phosphate 1 receptor (S1P1 receptor) that react with sphingosine-1-phosphate (S1P). […] coupled to Gi protein that reacts with the S1P1 receptor and increases intracellular calcium concentration. CHO-K1 cells, which are used for preparing a stable cell line, show no change in the calcium concentration by S1P, and thus they are good for checking signals from human S1P receptors after transfecting the cells with each subtype of the receptors.
To prepare CHO cells which overexpress human S1P1-S1P5, human clones for each subtype having HA at the N terminal residue (S1P1: EDG010 TN00, S1P2: EDG020TN00, S1P3: EDG030TN00, S1P4: EDG060TN00, S1P5: EDG080TN00) were purchased from Missouri S&T cDNA Resource Center and co-transfected with G-protein alpha subunit (G-alpha-16) into CHO-K1 cells. After separating cells by fluorescence-activated cell sorting (FACS, LK BioScience, JSAN) using HA-antibodies (MACS, Anti-HA-PE), they were selectively cultured in the medium with 10% FBS (Gibco, USA), 0.5 mg/mL Geneticin (Gibco) and 0.2 mg/mL Hygromycin B F12 (Gibco) to obtain the desired cells.
A calcium measurement kit (Calcium 5 assay kit, Molecular Devices) was used to select an agonist compound. The principle of calcium measurement is that calcium-sensitive dyes are applied to cells, they enter into the cytoplasm of the cells during incubation, and when a ligand binds to a certain receptor to release calcium into the cytoplasm, the dyes bind to said calcium to induce fluorescence which is measured. This test method can sensitively measure only the intracellular calcium concentration change because any change that may occur outside the cells is masked by a masking dye.
The experimental procedure was as follows. One day before calcium measurement, CHO cells overexpressing hS1P1-hS1P5 were dispensed into a 96-well plate (bottom clear black well) in 3×10^4 cells per well and cultured at 37° C. under 5% carbon dioxide condition for one day. 100 μl of calcium dyes mixed with Assay Buffer (1×HBSS, 20 mM HEPES, 2.5 mM probenecid, pH 7.4) were dispensed into culture solution in well and cultured at 37° C. for one hour. Test compounds were dissolved in 100% DMSO to prepare 1 μl solution per each concentration, and each solution was mixed with 199 μl Assay Buffer such that the concentrations were […]. The plate cultured with the calcium dyes was put into FlaxstationII (Molecular Devices), and the prepared test compounds (the final concentrations of the test compounds: 10, 1, 0.1, 0.01, 0.001 and 0.0001 μM) were programmed to be automatically inoculated in 50 μl per each well. For a total of 90 seconds, relative fluorescence unit (RFU) values were measured. The value of Reference (S1P substance 1 μM) deducting the blank value was set as 100%, and EC50 values of the test compounds were calculated by prism.

T1 sequence (P21453 whole entry): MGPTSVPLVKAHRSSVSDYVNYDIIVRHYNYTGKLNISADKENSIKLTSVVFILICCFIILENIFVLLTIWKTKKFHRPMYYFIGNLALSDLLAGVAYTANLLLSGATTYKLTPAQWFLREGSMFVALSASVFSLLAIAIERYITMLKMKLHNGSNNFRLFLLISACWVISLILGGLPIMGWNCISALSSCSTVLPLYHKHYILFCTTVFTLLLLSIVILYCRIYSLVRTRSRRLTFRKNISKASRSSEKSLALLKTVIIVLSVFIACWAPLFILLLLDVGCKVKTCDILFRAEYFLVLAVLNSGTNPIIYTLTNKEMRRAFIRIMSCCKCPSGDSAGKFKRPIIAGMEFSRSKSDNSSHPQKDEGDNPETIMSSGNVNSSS

First: CC(C)n1nc(Cl)c2cc(COc3ccc4c(c3)OCC(CN(C)CC(=O)O)=C4)ccc21 [Example 1, {[7-(3-chloro-1-isopropyl-1H-indazol-5-ylmethoxy)-2H-chromene-3-ylmethyl]-methyl-amino}-acetic acid]
Second: CC(C)n1nc(Cl)c2cc(COc3ccc4c(c3)OCC(CN3CC(C(=O)O)C3)=C4)ccc21 [Example 2, 1-[7-(3-chloro-1-isopropyl-1H-indazol-5-ylmethoxy)-2H-chromene-3-ylmethyl]-azetidin-3-carboxylic acid]
The pEC50 of the first is 0.29 log units lower: 8.39 for the first, 8.68 for the second. The second is the more potent here.

Compared with `CCCn1nc2ccc(COc3ccc4c(c3)OCC(CN3CC(C(=O)O)C3)=C4)cc2c1Cl` [Example 3, 1-[7-(3-chloro-2-propyl-2H-indazol-5-ylmethoxy)-2H-chromene-3-ylmethyl]-azetidin-3-carboxylic acid], `CCCn1nc(Cl)c2cc(COc3ccc4c(c3)OCC(CN3CC(C(=O)O)C3)=C4)ccc21` [Example 16, 1-[7-(3-chloro-1-propyl-1H-indazol-5-ylmethoxy)-2H-chromene-3-ylmethyl]-azetidin-3-carboxylic acid] is 0.21 log units higher in pEC50: 7.15 for the first, 7.36 for the second.

`CC(C)n1nc(Cl)c2cc(COc3ccc4c(c3)OCC(CN3CCC(C(=O)O)CC3)=C4)ccc21` [Example 4, 1-[7-(3-chloro-1-isopropyl-1H-indazol-5-ylmethoxy)-2H-chromene-3-ylmethyl]-piperidin-4-carboxylic acid] and `CC(C)n1nc(Cl)c2cc(COc3ccc4c(c3)OCC(CN3CCCC(C(=O)O)CC3)=C4)ccc21` (stereo not drawn) [Example 15, 1-[7-(3-chloro-1-isopropyl-1H-indazol-5-ylmethoxy)-2H-chromene-3-ylmethyl]-azepane-4-carboxylic acid] are within 0.2 log units of each other in pEC50: 8.04 for the first, 8.20 for the second.

`CC(C)n1nc(Cl)c2cc(COc3ccc4c(c3)OCC(CN3CCC[C@@H](C(=O)O)C3)=C4)ccc21` [Example 5, (R)-1-[7-(3-chloro-1-Isopropyl-1H-indazol-5-ylmethoxy)-2H-chromene-3-ylmethyl]-piperidin-3-carboxylic acid] and `CC(C)n1nc(Cl)c2cc(COc3ccc4c(c3)OCC(CN3CCC[C@H](C(=O)O)C3)=C4)ccc21` [Example 6, (S)-1-[7-(3-chloro-1-H-isopropyl-1H-indazol-5-ylmethoxy)-2H-chromene-3-ylmethyl]-piperidin-3-carboxylic acid] are within 0.2 log units of each other in pEC50: 7.96 for the first, 7.89 for the second.

First: CC(C)n1nc(Cl)c2cc(COc3ccc4c(c3)OCC(CN3CC[C@H](C(=O)O)C3)=C4)ccc21 [Example 7, (S)-1-[7-(3-chloro-1-H-isopropyl-1H-indazol-5-ylmethoxy)-2H-chromene-3-ylmethyl]-pyrrolidin-3-carboxylic acid]
Second: CC(C)n1nc(Cl)c2cc(COc3ccc4c(c3)OCC(CN3CC[C@@H](C(=O)O)C3)=C4)ccc21 [Example 9, (R)-1-[7-(3-chloro-1-Isopropyl-1H-indazol-5-ylmethoxy)-2H-chromene-3-ylmethyl]-pyrrolidin-3-carboxylic acid]
The pEC50 of the first is 0.40 log units higher: 8.24 for the first, 7.84 for the second.

Compared with `CC(C)n1nc(Cl)c2cc(COc3ccc4c(c3)OCC(CN3CC(CCl)(C(=O)O)C3)=C4)ccc21` [Example 8, 1-[7-(3-chloro-1-isopropyl-1H-indazol-5-ylmethoxy)-2H-chromene-3-ylmethyl]-chloromethyl-azetidin-3-carboxylic acid], `CCc1nn(C(C)C)c2ccc(COc3ccc4c(c3)OCC(CN3CCC(C(=O)O)CC3)=C4)cc12` [Example 14, 1-[7-(1-H-isopropyl-3-ethyl-1H-indazol-5-ylmethoxy)-2H-chromene-3-ylmethyl]-piperidin-4-carboxylic acid] is 0.28 log units lower in pEC50: 8.20 for the first, 7.92 for the second. The first is the more potent here.

Going from `CC1=C(CN2CCC(C(=O)O)CC2)COc2cc(OCc3ccc4c(c3)c(Cl)nn4C(C)C)ccc21` [Example 10, 1-[7-(3-chloro-1-Isopropyl-1H-indazol-5-ylmethoxy)-4-methyl-2H-chromene-3-ylmethyl]-piperidin-4-carboxylic acid] to `CC(C)n1nc(Cl)c2cc(COc3ccc4c(c3)OCC(CN3CCC(C(=O)O)CC3)=C4Cl)ccc21` [Example 11, 1-[4-chloro-7-(3-chloro-1-H-isopropyl-1H-indazol-5-ylmethoxy)-2H-chromene-3-ylmethyl]-piperidin-4-carboxylic acid], the pEC50 falls from 8.56 to 8.08 (0.48 log units). The first is the more potent here.

Going from `CC(C)n1nc(Cl)c2cc(COc3cc(F)c4c(c3)OCC(CN3CCC(C(=O)O)CC3)=C4)ccc21` [Example 12, 1-[7-(3-chloro-1-H-isopropyl-1H-indazol-5-ylmethoxy)-5-fluoro-2H-chromene-3-ylmethyl]-piperidin-4-carboxyl acid] to `CC(C)Cn1nc(Cl)c2cc(COc3cc(F)c4c(c3)OCC(CN3CCC(C(=O)O)CC3)=C4)ccc21` [Example 20, 1-[7-(3-chloro-1-isobutyl-1H-indazol-5-ylmethoxy)-5-fluoro-2H-chromene-3-ylmethyl]-piperidin-4-carboxylic acid], the pEC50 rises from 7.84 to 8.29 (0.45 log units).

`CC(C)n1nc(C(F)(F)F)c2cc(COc3ccc4c(c3)OCC(CN3CCC(C(=O)O)CC3)=C4)ccc21` [Example 13, 1-[7-(1-Isopropyl-3-trifluoromethyl-1H-indazol-5-ylmethoxy)-2H-chromene-3-ylmethyl]-piperidin-4-carboxylic acid] and `CCCn1nc(Cl)c2cc(COc3ccc4c(c3)OCC(CN3CCC(C(=O)O)CC3)=C4)ccc21` [Example 17, 1-[7-(3-chloro-1-propyl-1H-Indazol-5-ylmethoxy)-2H-chromene-3-ylmethyl]-piperidin-4-carboxylic acid] are within 0.2 log units of each other in pEC50: 7.76 for the first, 7.68 for the second.

`O=C(O)C1CCN(CC2=Cc3ccc(OCc4ccc5c(c4)c(Cl)nn5CC4CC4)cc3OC2)CC1` [Example 18, 1-[7-(3-chloro-1-cyclopropylmethyl-1H-indazol-5-ylmethoxy)-2H-chromene-3-ylmethyl]-piperidin-4-carboxylic acid] and `O=C(O)C1CCN(CC2=Cc3c(F)cc(OCc4ccc5c(c4)c(Cl)nn5C4CCCC4)cc3OC2)CC1` [Example 19, 1-[7-(3-chloro-1-cyclopentyl-1H-indazol-5-ylmethoxy)-5-fluoro-2H-chromene-3-ylmethyl]-piperidin-4-carboxylic acid] are within 0.2 log units of each other in pEC50: 7.19 for the first, 7.15 for the second.

In the case of `CC(C)Cn1nc(Cl)c2cc(COc3cc(F)c4c(c3)OCC(CN3CCCC(C(=O)O)CC3)=C4)ccc21` (stereo not drawn) [Example 21, 1-[7-(3-chloro-1-Isobutyl-1H-indazol-5-ylmethoxy)-5-fluoro-2H-chromene-3-ylmethyl]-azepane-4-carboxylic acid], the pEC50 was 7.84.

— patent publication US12479836B2, “Sphingosine-1-phosphate receptor agonist, preparation method therefor, and pharmaceutical composition containing same as active ingredient” (priority 2019, dated 2025)
